According to US10398682B2, “Methods and compositions to prevent or treat bacterial infections” (THE BOARD OF REGENTS OF THE UNIVERSITY OF TEXAS SYSTEM, priority 2013, dated 2019):
≈ marks a conversion by molar mass, not a printed value.

Tests used:
[1] = humans; 300 mg/m^2 dose level; cited from earlier work
[2] = test system: A. baumannii strain CI 79; assay: Bacterial adherence to mouse intestinal sections; type: cell-based, Acinetobacter baumannii
Experimental: Intestinal sections were cut down one side to expose the inner lumen of the intestine and individually placed in suspensions of A. baumannii strain CI 79 (10^7 CFU/mL). The sections were incubated in this mixture for 30 minutes, washed twice in 250 volumes of sterile PBS and soaked in 500 volumes of PBS (volume of section ˜50-100 μL) for five minutes. The remaining bound bacteria were enumerated through homogenization of each section into single cell suspensions in 10 mL sterile PBS followed by dilution plating.

Acinetobacter baumannii [3] = assay: SIgA breakdown / secretory component liberation by Acinetobacter baumannii (Western blot); type: cell-based; conditions: for SC liberation / SIgA reduction: 2 hours after incubation
Experimental: Acinetobacter baumannii was incubated with 50 μg/mL SIgA to examine breakdown of the immunoglobulin. Breakdown of SIgA by A. baumannii was observed by liberation of secretory component from dimeric IgA. Goat anti-human secretory component (free and bound) antibody was used to monitor this occurrence though Western blot. A mixture of A. baumannii strain CI 79 was prepared in three concentrations—10^7, 10^6, and 10^5 CFU/mL—to determine whether SIgA breakdown was dose dependent with respect to bacterial concentration FIG. 1A. […] Next, two competitive inhibitors of reductase enzymes targeting the thioredoxin fold (-C-X-X-C-) motif typically found in thiol-reductase enzymes (thioredoxin, glutathione, thioredoxin reductase, etc) were identified. The first, dithionitrobenzoic acid (Ellman's reagent) is often used as a colorimetric substrate to monitor thioredoxin activity as it produces a bright yellow color upon cleavage of the disulfide bond within the molecule. The second is PX-12. […] Although not shown here, inhibition was still evident at 24 hours with Ellman's reagent, PX-12 inhibition seemed to be overcome by the bacteria after about 12 hours. […] (Error bars represent±SEM in all graphs; statistical differences determined by ANOVA with Dunnett correction; *significance p<0.01; **p<0.001).

Acinetobacter baumannii [4] = assay: Repeat MIC experiment performed to CLSI standards; type: cell-based
[5] = test system: multi-drug resistant (MDR) Acinetobacter baumannii clinical isolates; assay: Minimum inhibitory concentration (MIC) determination; type: cell-based
Experimental: PX-12 concentrations used in these experiments approximated the concentration reported “well tolerated” by mice (˜500 μg/mouse; 500 μg/mL for this experiment). […] Furthermore, this concentration was also bactericidal leading us to believe it may potentially be useful as a new antimicrobial compound for treating MDR Acinetobacter baumannii. (Bacterial concentrations used in presented studies ˜100× higher than recommended by CLSI standards)

[6] = mouse, in vivo; cited from earlier work
[7] = cation adjusted Mueller Hinton broth, ~5×10^5 CFU/mL, 64 to 0.5 μg/mL tested

Row | Structure (SMILES) | dose-limiting toxicities [1] | bacterial adherence to intestinal sections ([2]; 18 μg/mL, sections from WT C57BL/6 mice) | reduction of bacterial attachment ([2]; WT intestinal sections as 100% control, A. baumannii CI 79 10^7 CFU/mL, 30 minutes) | SC liberation (Acinetobacter baumannii [3]; inhibitor 15 μg/mL) | SIgA reduction (Acinetobacter baumannii [3]; inhibitor 15 μg/mL) | time after which inhibition is overcome by the bacteria (Acinetobacter baumannii [3]; not shown) | SIgA breakdown by Acinetobacter baumannii (Acinetobacter baumannii [3]; up to 2 hours following treatment with 18 μg/mL) | MBC (Acinetobacter baumannii [4]; [7]) | MIC (Acinetobacter baumannii [4]; [7]) | type of antimicrobial activity (Acinetobacter baumannii [4]; concluded from MIC and MBC) | bactericidal effect at the MIC ([5]; 31.25 μg/mL) | bacterial pellet size ([5]; 500 μg/mL) | MIC ([5]; Acinetobacter baumannii, MDR clinical isolates, with one exception, bacterial concentrations ~100× higher than CLSI) | concentration reported well tolerated [6] | SC liberation (Acinetobacter baumannii [3]; inhibitor 1 mM) | SIgA reduction (Acinetobacter baumannii [3]; inhibitor 1 mM) | inhibition of SIgA reduction at 24 hours (Acinetobacter baumannii [3]; 24 hours, not shown) | SIgA breakdown by Acinetobacter baumannii (Acinetobacter baumannii [3]; after addition of the substrate, concentration not given)
1 | CCC(C)SSc1ncc[nH]1 (stereo not drawn) [PX-12, 1-methylpropyl 2-imidazolyl disulfide] | Grade 3 hypoxia and Grade 2 reversible bilateral pneumonitis | significantly inhibits | 40% | completely ablated | completely ablated | about 12 hours | significantly reduced | low | low | bactericidal activity | bactericidal | visible decrease | 31.2 µg/mL (≈ 166 µM) | ~500 μg/mouse |  |  |  | 
2 | O=C(O)c1cc(SSc2ccc([N+](=O)[O-])c(C(=O)O)c2)ccc1[N+](=O)[O-] [dithionitrobenzoic acid] |  |  |  |  |  |  |  |  |  |  |  |  |  |  | completely ablated | completely ablated | still evident | significantly reduced
